Here are results for one compound from article PMC10242237 (Scientific Reports, 2023).

The conditions of series [1]: phase I clinical trial, humans; cited from earlier work.
Series [2] has as its system M^pro. The following applies: Protease-Glo luciferase and Flip-GFP assays; cited from earlier work.
For series [3], the target named is SARS-CoV-2 M^pro (Severe acute respiratory syndrome coronavirus 2, UniProt P0DTD1). Kind of series: biochemical.
For series [4], the target named is T1, SARS-CoV-2 PL^pro (Severe acute respiratory syndrome coronavirus 2, UniProt P0DTD1). To be noted: Flip-GFP assay, 293T-ACE2 cells; cited from earlier work.
Series [5] has as its target SARS-CoV-2 nsp14 N7-MTase (Severe acute respiratory syndrome coronavirus 2, UniProt P0DTD1). Kind of series: Py-FLINT fluorescence assay of nsp14 N7-MTase. To be noted: four-parameter dose-response fit, variable Hill slope. In kind it is biochemical.
Experimental: To determine their IC50 values, we used the previously described fluorescence assay Py-FLINT[42],[67]. To this end, the Py-FLINT probe (1 μM) was incubated with SAM cosubstrate (20 μM), nsp14 enzyme (40 nM), and half-log inhibitor dilutions in 50 mM Tris–HCl pH 7.5 buffer at 30 °C. The reaction progress was monitored in 96-well cells by registering the fluorescence intensity signal with a 1-min time interval. Using the initial reaction course, the values of initial rates V were calculated. To calculate IC50 values from the obtained dependences of initial rates versus inhibitor concentration, we fitted a four-parameter dose–response equation, assuming a variable Hill slope p (Table 3, Fig. S2).
The Py-FLINT probe (1 μM) was incubated with SAM cosubstrate (20 μM), nsp14 (40 nM), and an inhibitor (half-log dilutions logCinh < − 2.5; 2 >). […] Initial rates V were calculated by fitting a linear curve to the first 10 points (10 min). To the obtained dependences V(Cinh) the following four-parameter dose–response equation was fitted:1 V/V0=A1+A2-A1/1+Cinh/IC50^p, where A1 and A2 are the bottom and top asymptotes, respectively; Cinh the inhibitor concentration; p is the Hill coefficient, and V/V0 is the ratio of the initial reaction rate with the inhibitor to that without the inhibitor. For curve fitting and IC50 calculations we used GraphPad Prism software.
Series [6] concerns the target T1, SARS-CoV-2 PL^pro. Kind of series: biochemical. To be noted: 0.5 h; [E] = 100 nM, [I] = 1 µM, [S] = 10 µM; read-out: inhibition [%] SARS-CoV-2 PLpro.
The nature of series [7]: Cytotoxicity assay (XTT) in Vero E6 cells. The following applies: African green monkey. In kind it is cell-based. As for the experimental part: Cytotoxicity was evaluated by incubating two-fold serial dilutions of each compound with Vero E6 cells.
In general terms: Formazan colour is commonly taken as a measure of viable cells.

Series [8] has as its system M^pro. The following applies: in vitro FRET substrate assay, recombinant enzyme; cited from earlier work.
For series [9], the system named is SARS-CoV-2. Nature of the series: Cytopathic effect (CPE)-based anti-SARS-CoV-2 assay in Vero E6 cells. To be noted: read-out: EC50 CPE, three days, XTT.

One may read the inhibition as the change of the read-out against control, counted positive when it falls. Usually CC50 stands for the concentration at which the toxic effect on the cells reaches its halfway point. The term EC50 denotes the concentration at which the effect is half-maximal. Turning to `O=c1c2ccccc2[se]n1-c1ccccc1` [Ebselen, 2-phenylbenzisoselenazol-3(2H)-one, reference compound], in series [1], the tolerated single dose was 1600 mg. Also, in [2], the “M^pro inhibition in cells” value is given as “no M^pro inhibition”. In addition, the inhibition at 0.1 µM in series [3] ([E] = 100 nM, [I] = 100 nM, [S] = 50 µM, read-out: inhibition [%] SARS-CoV-2 Mpro, [I] = 100 nM) stood at 57.6 ± 1.3%. Besides, the inhibition at 1 µM in [3] (read-out: inhibition [%] SARS-CoV-2 Mpro, [I] = 1 µM) turned out to be 100%; in series [6] it was 65.4 ± 2.4%. The “SARS-CoV-2 PL^pro inhibition in cells” value in series [4] is listed as “no SARS-CoV-2 PL^pro inhibition”. Further, in series [5], the “SARS-CoV-2 nsp14 Hill coefficient p” value was 2.74 ± 0.47. The CC50 at 3 days in series [7] was approximately 30 µM. The “M^pro inhibition in presence of reducing agent” value in series [8] is listed as “does not inhibit”. Moreover, the EC50 in [9] stood at 34 ± 7.9 µM.
